Assay results taken from patent US10717720B2, “Modified compound of andrographolide” (Heilongjiang Zhenbaodao Pharmaceutical Co., Ltd., priority 2015, dated 2020).

test system: LPS-induced IL-6 release level from THP-1 cells; assay: Test of IL-6 release from THP-1 cells (LPS-induced, IL-6 in supernatant detected by CBA); type: cell-based; conditions: Homo sapiens; inflammatory factor IL-6 detected by CBA; compound 10 uM; LPS-stimulated THP-1 cells, supernatant after 24 hours; read-out: Inhibition rate @ 10 uM
Description: Test of IL-6 Release from THP-1 Cells
The inhibitory effect of the compound on LPS-induced IL-6 release level from THP-1 cells was evaluated by measuring the level of IL-6 in the cell culture supernatant.
4 ul was taken from each above solution and added to lml of culture solution to make 120 uM, 40 uM, 12 uM, 4 uM. 50 ul per well was taken and added to wells with cells to give final concentrations of 30 uM, 10 uM, 3 uM, and 1 uM, respectively. Dexamethasone was added as a positive drug into an individual cell well with a final concentration of 100 nM. • c) Cell stimulation
The LPS 1 mg/ml solution was diluted to 800 ng/ml with the culture solution and added to the cell culture wells at 50 ul/well. • d) Cell incubation and detection
The cell culture plate was placed in a 37° C. incubator, and the supernatant was collected after culturing for 24 hours. The level of IL-6 in the supernatant was detected by CBA.

| SMILES | inhibition at 10 µM [%] |
| --- | --- |
| C=C1CCC2[C@]3(C)CO[C@@H](C4CCCC4)O[C@@H]3CC[C@@]2(C)[C@@H]1CCN1CCC(CO)CC1 (stereo partly drawn) [Compound 002, (1-(2-((3R,4aR,6aS,7R,10bR)-3-cyclopentyl-6a,10b-dimethyl-8-methylene-decahydro-1H-naphtho[2,1-d][1,3]dioxin-7-yl)ethyl)piperidin-4-yl)methanol] | < 30 |
| C=C1CCC2[C@]3(C)CO[C@@H](C4CCCC4)O[C@@H]3CC[C@@]2(C)[C@@H]1CCN1CCC(OC)C1 (stereo partly drawn) [Compound 116] | 30 to 60 |
| C=C1CCC2[C@]3(C)CO[C@@H](C4CCCC4)O[C@@H]3CC[C@@]2(C)[C@@H]1CCN1CCOCC1 (stereo partly drawn) [Compound 123, 4-(2-((3R,4aR,6aS,7R,10bR)-3-cyclopentyl-6a,10b-dimethyl-8-methylenedecahydro-1H-naphtho[2,1-d][1,3]dioxin-7-yl)ethyl)morpholine] | < 30 |
| C=C1CCC2[C@]3(C)CO[C@@H](c4ccc(F)c(F)c4)O[C@@H]3CC[C@@]2(C)[C@@H]1CCN1CCC(CO)CC1 (stereo partly drawn) [Compound 130, (1-(2-((3R,4aR,6aS,7R,10bR)-3-(3,4-difluorophenyl)-6a,10b-dimethyl-8-methylenedecahydro-1H-naphtho[2,1-d][1,3]dioxin-7-yl)ethyl)piperidin-4-yl)methanol] | < 30 |
| C=C1CCC2[C@]3(C)CO[C@@H](C4CCCC4)O[C@@H]3CC[C@@]2(C)[C@@H]1CCN1CCC[C@H]1C(=O)OC (stereo partly drawn) [Compound 147] | < 30 |
| C=C1CCC2[C@]3(C)CO[C@@H](C4CCCC4)O[C@@H]3CC[C@@]2(C)[C@@H]1CCN1CC[C@H](NC(C)=O)C1 (stereo partly drawn) [Compound 149, N-((3 S)-1-(2-((3R,4aR,6aS,7R,10bR)-3-cyclopentyl-6a,10b-dimethyl-8-methylenedecahydro-1H-naphtho[2,1-d][1,3]dioxain-7-yl)ethyl)pyrrolidin-3-yl)acetamide] | 30 to 60 |
| C=C1CCC2[C@]3(C)CO[C@@H](C4CCCC4)O[C@@H]3CC[C@@]2(C)[C@@H]1CCN1CCC(N(CC)CC)CC1 (stereo partly drawn) [Compound 150, 1-(2-((4aR,6aS,7R,10bR)-3-cyclopentyl-6a,10b-dimethyl-8-methylene-decahydro-1H-naphtho[2,1-d][1,3]dioxin-7-yl)ethyl)-N,N-diethylpiperidin-4-amine] | 30 to 60 |
| C=C1CCC2[C@]3(C)CO[C@@H](C4CCCC4)O[C@@H]3CC[C@@]2(C)[C@@H]1CCN1CCC(N2CCCC2)CC1 (stereo partly drawn) [Compound 160, 1-(2-((3R,4aR,6aS,7R,10bR)-3-cyclopentyl-6a,10b-dimethyl-8-methylene-decahydro-1H-naphtho[2,1-d][1,3]dioxin-7-yl)ethyl)-4-(pyrrolidin-1-yl)piperidine] | > 60 |
| C=C1CCC2[C@]3(C)CO[C@@H](C4CCCC4)O[C@@H]3CC[C@@]2(C)[C@@H]1CCN1CCCC1C(=O)O (stereo partly drawn) [Compound 163, 1-(2-((3R,4aR,6aS,7R,10bR)-3-cyclopentyl-6a,10b-dimethyl-8-methylenedecahydro-1H-naphtho[2,1-d][1,3]dioxin-7-yl)ethyl)pyrrolidine-2-carboxylic acid] | > 60 |
| C=C1CCC2[C@]3(C)CO[C@@H](C4CCCC4)O[C@@H]3CC[C@@]2(C)[C@@H]1CCN1CCC2(CCN(C)CC2)C1 (stereo partly drawn) [Compound 181] | < 30 |
| C=C1CCC2[C@]3(C)CO[C@@H](C4CCCC4)O[C@@H]3CC[C@@]2(C)[C@@H]1CCN(CCO)CCO (stereo partly drawn) [Compound 191, 3-((2-((3R,4aR,6aS,7R,10bR)-3-cyclopentyl-6a,10b-dimethyl-8-methylene-decahydro-1H-naphtho[2,1-d][1,3]dioxin-7-yl)ethyl)amino)N,N-diethanolamine] | < 30 |
| C=C1CCC2[C@]3(C)CO[C@@H](C4CCCC4)O[C@@H]3CC[C@@]2(C)[C@@H]1CCN1CCOC1=O (stereo partly drawn) [Compound 196, 3-(2-((3R,4aR,6aS,7R,10bR)-3-cyclopentyl-6a,10b-dimethyl-8-decahydromethylene-1H-naphtho[2,1-d][1,3]dioxin-7-yl)ethyl)oxazolidin-2-one] | 30 to 60 |
